From ChEMBL document CHEMBL1126630, “Adenosine-5'-carboxaldehyde: a potent inhibitor of S-adenosyl-L-homocysteine hydrolase” (J Med Chem, 1993)

Experiments:
[1] = target: T1, Adenosylhomocysteinase (Rattus norvegicus) (UniProt P10760)
T1 sequence (whole entry): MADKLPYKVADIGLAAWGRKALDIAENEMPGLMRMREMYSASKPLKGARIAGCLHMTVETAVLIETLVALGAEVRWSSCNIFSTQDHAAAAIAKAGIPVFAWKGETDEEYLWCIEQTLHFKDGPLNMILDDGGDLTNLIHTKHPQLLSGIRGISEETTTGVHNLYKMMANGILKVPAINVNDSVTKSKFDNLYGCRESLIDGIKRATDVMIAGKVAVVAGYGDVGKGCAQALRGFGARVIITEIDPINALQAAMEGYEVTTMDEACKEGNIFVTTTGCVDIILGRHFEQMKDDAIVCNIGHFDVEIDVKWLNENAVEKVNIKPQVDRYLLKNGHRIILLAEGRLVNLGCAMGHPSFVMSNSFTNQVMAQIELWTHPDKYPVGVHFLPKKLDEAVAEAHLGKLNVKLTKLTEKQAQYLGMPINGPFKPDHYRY
Description: Rate constant for recombinant rat liver S-adenosyl-homocysteine hydrolase inactivation

[2] = target: T2, Adenosylhomocysteinase (Rattus norvegicus, UniProt P10760); test: Inhibitory activity against recombinant rat liver S-adenosyl-homocysteine hydrolase
T2 sequence (P10760 whole entry): T1 sequence (whole entry)

| k2 [1] | Ki [2] | SMILES |
| --- | --- | --- |
| 0.65 min⁻¹ | 39 nM | Nc1ncnc2c1ncn2[C@@H]1O[C@@H](C=O)[C@@H](O)[C@H]1O |
| 0.05 min⁻¹ | 40 nM | Nc1ncnc2c1ncn2[C@@H]1O/C(=C/F)[C@H](O)[C@@H]1O |
| 0.22 min⁻¹ | 43 nM | Nc1ncnc2c1ncn2[C@@H]1O[C@H](C=O)[C@@H](O)[C@H]1O |
| 0.082 min⁻¹ | 39 nM | Nc1ncnc2c1ncn2[C@@H]1O/C(=C\F)[C@H](O)[C@@H]1O |
